# Source: ChEMBL document CHEMBL3352457 (Bioorg Med Chem Lett, 2015)
# Activity calls are given as the source filed them. The calls are words filed in the database; no cut-off is given here.
# Assays:
# [1] = target: T1, Neurotensin receptor type 2 (Rattus norvegicus, UniProt Q63384); test: Displacement of [[…]]NT from rat neurotensin receptor type 2 expressed in CHOK1 cells by radioligand binding assay; format: cell-based, CHO-K1
# T1 sequence (Q63384 whole entry): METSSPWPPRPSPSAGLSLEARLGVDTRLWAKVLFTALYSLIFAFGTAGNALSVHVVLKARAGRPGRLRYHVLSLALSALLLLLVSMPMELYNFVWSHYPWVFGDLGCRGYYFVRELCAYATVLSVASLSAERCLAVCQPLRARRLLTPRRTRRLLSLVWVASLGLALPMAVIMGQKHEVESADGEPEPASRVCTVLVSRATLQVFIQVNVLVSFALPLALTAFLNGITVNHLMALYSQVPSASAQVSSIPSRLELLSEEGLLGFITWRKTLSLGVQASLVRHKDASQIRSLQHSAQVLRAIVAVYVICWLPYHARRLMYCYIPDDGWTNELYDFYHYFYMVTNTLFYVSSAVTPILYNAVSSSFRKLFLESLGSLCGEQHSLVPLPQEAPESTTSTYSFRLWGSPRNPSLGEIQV
# [2] = target: T1, Neurotensin receptor type 2; test: Agonist activity at rat neurotensin receptor type 2 expressed in CHOK1 cells assessed as increase in calcium release by FLIPR assay; format: functional, cell-based, CHO-K1
# [3] = target: Neurotensin receptor type 1 (Rattus norvegicus, UniProt P20789); test: Displacement of [[…]]NT from rat neurotensin receptor type 1 expressed in CHOK1 cells by radioligand binding assay; format: cell-based, CHO-K1
# [4] = target: Neurotensin receptor type 1 (Rattus norvegicus) (UniProt P20789); test: Agonist activity at rat neurotensin receptor type 1 expressed in CHOK1 cells assessed as increase in calcium release at 10 uM by FLIPR assay; format: functional, cell-based; conditions: CHO-K1
# [5] = target: T2, Neurotensin receptor type 2 (Rattus norvegicus) (UniProt Q63384); test: Antagonist activity at rat neurotensin receptor type 2 expressed in CHOK1 cells assessed as inhibition of SR142948a-induced calcium release at 10 uM by FLIPR assay; format: functional, cell-based; conditions: CHO-K1
# T2 sequence (whole entry): T1 sequence (Q63384 whole entry)
# [6] = target: Neurotensin receptor type 1 (Rattus norvegicus) (UniProt P20789); test: Antagonist activity at rat neurotensin receptor type 1 expressed in CHOK1 cells assessed as inhibition of calcium release at 10 uM by FLIPR assay; format: functional, cell-based; conditions: CHO-K1
# [7] = target: T2, Neurotensin receptor type 2 (Rattus norvegicus); test: Agonist activity at rat neurotensin receptor type 2 expressed in CHOK1 cells assessed as increase in calcium release at 10 uM by FLIPR assay; format: functional, cell-based; conditions: CHO-K1
# [8] = target: T2, Neurotensin receptor type 2 (Rattus norvegicus); test: Agonist activity at rat neurotensin receptor type 2 expressed in CHOK1 cells assessed as increase in calcium release by FLIPR assay relative to SR142948a; format: functional, cell-based; conditions: CHO-K1
# [9] = target: Neurotensin receptor type 1 (Rattus norvegicus) (UniProt P20789); test: Agonist activity at rat neurotensin receptor type 1 expressed in CHOK1 cells assessed as increase in calcium release by FLIPR assay; format: functional, cell-based; conditions: CHO-K1
# [10] = target: T1, Neurotensin receptor type 2; test: Antagonist activity at rat neurotensin receptor type 2 expressed in CHOK1 cells assessed as inhibition of SR142948a-induced calcium release by FLIPR assay; format: functional, cell-based, CHO-K1
# Chain of Neurotensin receptor type 1 (Rattus norvegicus) (P20789 whole entry): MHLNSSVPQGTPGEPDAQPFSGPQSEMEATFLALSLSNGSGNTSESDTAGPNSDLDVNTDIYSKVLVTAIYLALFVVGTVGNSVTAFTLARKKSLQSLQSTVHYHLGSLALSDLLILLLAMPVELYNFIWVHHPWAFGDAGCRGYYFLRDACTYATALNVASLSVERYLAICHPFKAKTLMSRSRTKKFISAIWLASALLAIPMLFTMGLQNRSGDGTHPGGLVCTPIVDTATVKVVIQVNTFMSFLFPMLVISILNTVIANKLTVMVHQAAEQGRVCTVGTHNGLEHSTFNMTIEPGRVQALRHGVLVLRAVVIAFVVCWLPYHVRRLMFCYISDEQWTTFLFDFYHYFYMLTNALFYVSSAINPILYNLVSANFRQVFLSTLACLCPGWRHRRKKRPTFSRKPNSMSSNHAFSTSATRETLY
# Chain of Neurotensin receptor type 1 (P20789 whole entry): as above
Structure (SMILES),Ki [1] [nM],EC50 [2] [nM],Ki [3] [nM],Activity [4],inhibition [5],inhibition [6],Activity [7],Emax [8] [%],Activity [9],IC50 [10] [nM]
Cc1ccc(C(=O)O)cc1NC(=S)NC(=O)C(c1ccccc1)c1ccccc1,–,–,–,inactive,inactive,inactive,inactive,–,–,–
O=C(O)c1cc(Nc2nc(-c3ccccc3)c3cc(Cl)ccc3n2)ccc1O,–,–,–,inactive,20%,inactive,inactive,–,–,–
O=C(O)c1cccc(NC(=S)NC(=O)C(c2ccccc2)c2ccccc2)c1,–,–,–,inactive,inactive,inactive,inactive,–,–,–
Cc1c(NC(=S)NC(=O)C(c2ccccc2)c2ccccc2)cccc1C(=O)O,–,–,–,inactive,inactive,inactive,inactive,–,–,–
O=C(O)c1ccc(NC(=S)NC(=O)C(c2ccccc2)c2ccccc2)cc1Cl,–,–,–,inactive,inactive,inactive,inactive,–,–,–
O=C1NC(=O)N(c2ccc(C(=O)O)cc2)C(=O)/C1=C/c1c(OCc2ccccc2)ccc2ccccc12,–,–,–,inactive,inactive,inactive,inactive,–,–,–

# More lines, now with the values ahead:
Ki [1] [nM],EC50 [2] [nM],Ki [3] [nM],Activity [4],inhibition [5],inhibition [6],Activity [7],Emax [8] [%],Activity [9],IC50 [10] [nM],Structure (SMILES)
7,18,2,–,–,–,–,–,–,–,COc1cccc(OC)c1-c1cc(C(=O)NC2(C(=O)O)C3CC4CC(C3)CC2C4)nn1-c1ccc(C(=O)N(C)CCCN(C)C)cc1C(C)C (centres undefined)
–,–,–,inactive,inactive,inactive,inactive,–,–,–,CC(C)[C@H](NC(=O)/C(=C/c1ccccc1)NC(=O)c1ccccc1)C(=O)O
959,145,–,–,–,–,–,26,inactive,–,COc1cccc(OC)c1-c1nc(C(=O)NC2(C(=O)O)CCCCC2)nc2ccc(Cl)cc12
–,–,–,inactive,inactive,inactive,inactive,–,–,–,COc1ccc(C(=O)N/C(=C\c2cccc([N+](=O)[O-])c2)C(=O)N[C@@H](CC(C)C)C(=O)O)cc1
–,–,–,inactive,inactive,inactive,inactive,–,–,–,COc1ccccc1C(=O)N/C(=C\c1ccc2c(c1)OCO2)C(=O)N[C@H](C(=O)O)C(C)C (stereo in doubt)
474,–,–,–,–,–,–,–,inactive,1070,COc1cccc(OC)c1-c1nc(C(=O)N[C@H](C(=O)O)C2CCCCC2)nc2ccc(Cl)cc12
–,–,–,inactive,inactive,inactive,inactive,–,–,–,COc1ccc(C(=O)N/C(=C\c2ccccc2)C(=O)N[C@H](C(=O)O)C(C)C)cc1
–,–,–,inactive,inactive,inactive,inactive,–,–,–,COc1ccc(C(=O)O)cc1NC(=S)NC(=O)C(c1ccccc1)c1ccccc1
